{"source": "patent US8178506B2", "about": "“Oligomeric compounds and compositions for use in modulation of small non-coding RNAs” (Regulus Therapeutics Inc., priority 2003, dated 2012)", "key": {"mir-143 binding sites": {"system": "mir-143 binding sites", "assay": "pGL3-mir-143 sensor luciferase assay in HeLa cells", "assay_type": "cell-based, human", "conditions": "HeLa cells, pGL3-mir-143 sensor with pCR3-pri-mir-143 (430)", "text": "In one embodiment, an expression system based on the pGL3-Control (Promega Corp., Madison Wis.) vector containing a CMV promoter controlling expression of a luciferase reporter sequence was used in transient transfections of HeLa cells with plasmids expressing miRNA or pri-miRNA mimics. To assess the ability of miRNA mimics to bind and regulate the expression of the luciferase reporter gene, two reporter plasmids were constructed: 1) a synthetic DNA fragment comprising two sites perfectly complementary to mir-143 were inserted into the pGL3-Control luciferase reporter vector, to create the pGL3-mir-143 sensor plasmid, and 2) a DNA fragment comprising the 3′-UTR of the LIM domain only 4 (LMO4) gene (predicted to be regulated by mir-143) was inserted into pGL3-Control to create pGL3-LMO4; this fragment was PCR-amplified using a primer beginning at position 1261 of the LMO4 sequence (GenBank Accession NM_006769.2, incorporated herein as SEQ ID: 809) and the downstream primer hybridizing to the poly-A tail. In each of these plasmids, the target site was placed downstream of the luciferase coding sequence and upstream of the polyadenylation signal in the 3′-UTR of the luciferase reporter vector. The unmodified pGL3-Control luciferase reporter vector was used as a control.\nHeLa cells were routinely cultured and passaged as described, and on the day before transfection with expression or reporter plasmids, the HeLa cells were seeded onto 24-well plates 50,000 cells/well. Cells were transfected according to standard published procedures with various combinations of plasmids using 2 μg Lipofectamine™ 2000 Reagent (Invitrogen) per μg of plasmid DNA, or, when transfecting oligomeric compounds, 1.25 μg of Lipofectamine™ 2000 Reagent per 100 nM oligonucleotide or double-stranded RNA. The luciferase signal in each well was normalized to the Renilla luciferase (RL) activity produced from a co-transfected plasmid, pRL-CMV, which was transfected at 0.5 μg per well. Cells were treated at various dosages (4 nM, 20 nM, and 100 nM) with the following oligomeric compound mimics: 1) “ds-mir-143,” 2) “ds-Control,” 3) “pCR3-pri-mir-143,” or 4) “pri-mir-control,” as described supra. In accordance with methods described in Example 12, supra, a luciferase assay was performed 48-hours after transfection. Briefly, cells were lysed in passive lysis buffer (PLB; Promega), and 20 ul of the lysate was then assayed for RL activity using a Dual Luciferase Assay kit (Promega) according to the manufacturer's protocol. The results below are an average of three trials and are presented as percent pGL3-Control luciferase expression normalized to pRL-CMV expression (RL).\nIn another embodiment, HeLa cells were transfected with 0.03 μg pGL3-mir-143 sensor plasmid and 0.01 μg pRL-CMV plasmid, and, in addition, (except those samples described below as “without mir-143 pri-miRNA,”) were also transfected with 0.01 μg of an expression plasmid designed to express a mir-143 pri-miRNA mimic comprising a larger 430-nt fragment of the mir-143 primary miRNA transcript, referred to as “pCR3-pri-mir-143 (430)” ([…]; SEQ ID NO: 871). […] To further evaluate the ability of the mir-143 pri-miRNA mimic to inhibit luciferase activity from the sensor plasmid, and to assess the ability of oligomeric compounds to interfere with the inhibition of pGL3-mir-143 sensor luciferase expression by the mir-143 pri-miRNA mimic, pGL3-mir-143 sensor-expressing HeLa cells treated with pCR3-pri-mir-143 (430) were additionally treated with varying concentrations (0-, 6.7- or 20 nM) of the following oligomeric compounds: 1) ISIS Number 327901 (SEQ ID NO: 319), a uniform 2′-MOE oligomeric compound targeting mir-143; 2) ISIS Number 342673 (SEQ ID NO: 758), a uniform 2′-MOE scrambled control; or 3) ISIS Number 327924 (SEQ ID NO: 342) targeting an unrelated miRNA (mir-129-2). […]"}, "A549 cells": {"system": "A549 cells", "assay": "Cell cycle assay in A549 cells", "assay_type": "cell-based, human", "conditions": "A549 cells, 24 hours, relative to the untreated control cells in that phase", "outline": "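A549 cells treated with 25, 50, 100 or 150 nM miRNA-targeting oligomeric compounds, random-mer as negative control. Flow cytometry cell cycle profiling 24 h after treatment; data as percentage of cells per phase relative to untreated control cells.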"}}, "note": "In the oligonucleotide strings, read from the 5' end, every base follows the letter of its sugar. An asterisk marks phosphorothioate; unmarked linkages are phosphodiester. Other units and linkages are bracketed, terminal groups are in braces. A string of capitals states the bases alone. e = 2'-O-(2-methoxyethyl) (MOE); [5mC] = 5-methylcytosine", "data": [{"substance": "327901 (antisense eT*eG*eA*eG*e[5mC]*eT*eA*e[5mC]*eA*eG*eT*eG*e[5mC]*eT*eT*e[5mC]*eA*eT*e[5mC]*eT*e[5mC]*eA) [compound 327901]", "values": [{"measurement": "Relative luciferase activity", "setting": "mir-143 binding sites; 6.7 nM", "value": 4.0}, {"measurement": "Relative luciferase activity", "setting": "mir-143 binding sites; 20 nM", "value": 6.4}]}, {"substance": "342673 (antisense eA*eG*eA*e[5mC]*eT*eA*eG*e[5mC]*eG*eG*eT*eA*eT*e[5mC]*eT*eT*eT*eA*eT*e[5mC]*e[5mC]*e[5mC]) [compound 342673]", "values": [{"measurement": "Relative luciferase activity", "setting": "mir-143 binding sites; 6.7 nM", "value": 1.3}, {"measurement": "Relative luciferase activity", "setting": "mir-143 binding sites; 20 nM", "value": 1.5}]}, {"substance": "340350 (antisense TGCTCAATAAATACCCGTTGAA; all 2'-MOE, all phosphorothioate, methylation of C not given here) [compound 340350]", "values": [{"measurement": "% cells in cell cycle phase: G1", "setting": "A549 cells; 25 nM", "value": 102, "unit": "%"}, {"measurement": "% cells in cell cycle phase: G2/M", "setting": "A549 cells; 25 nM", "value": 95, "unit": "%"}, {"measurement": "% cells in cell cycle phase: S", "setting": "A549 cells; 25 nM", "value": 100, "unit": "%"}, {"measurement": "% cells in cell cycle phase: aneuploid", "setting": "A549 cells; 25 nM", "value": 120, "unit": "%"}, {"measurement": "% cells in cell cycle phase: subG1", "setting": "A549 cells; 25 nM", "value": 91, "unit": "%"}, {"measurement": "% cells in cell cycle phase: G1", "setting": "A549 cells; 50 nM", "value": 128, "unit": "%"}, {"measurement": "% cells in cell cycle phase: G2/M", "setting": "A549 cells; 50 nM", "value": 126, "unit": "%"}, {"measurement": "% cells in cell cycle phase: S", "setting": "A549 cells; 50 nM", "value": 67, "unit": "%"}, {"measurement": "% cells in cell cycle phase: aneuploid", "setting": "A549 cells; 50 nM", "value": 80, "unit": "%"}, {"measurement": "% cells in cell cycle phase: subG1", "setting": "A549 cells; 50 nM", "value": 158, "unit": "%"}, {"measurement": "% cells in cell cycle phase: G1", "setting": "A549 cells; 100 nM", "value": 125, "unit": "%"}, {"measurement": "% cells in cell cycle phase: G2/M", "setting": "A549 cells; 100 nM", "value": 155, "unit": "%"}, {"measurement": "% cells in cell cycle phase: S", "setting": "A549 cells; 100 nM", "value": 60, "unit": "%"}, {"measurement": "% cells in cell cycle phase: aneuploid", "setting": "A549 cells; 100 nM", "value": 107, "unit": "%"}, {"measurement": "% cells in cell cycle phase: subG1", "setting": "A549 cells; 100 nM", "value": 267, "unit": "%"}, {"measurement": "% cells in cell cycle phase: G1", "setting": "A549 cells; 150 nM", "value": 128, "unit": "%"}, {"measurement": "% cells in cell cycle phase: G2/M", "setting": "A549 cells; 150 nM", "value": 211, "unit": "%"}, {"measurement": "% cells in cell cycle phase: S", "setting": "A549 cells; 150 nM", "value": 40, "unit": "%"}, {"measurement": "% cells in cell cycle phase: aneuploid", "setting": "A549 cells; 150 nM", "value": 108, "unit": "%"}, {"measurement": "% cells in cell cycle phase: subG1", "setting": "A549 cells; 150 nM", "value": 402, "unit": "%"}]}]}
